In brackets after ≈: the same amount, converted by molar mass.
Assays:
[1] = test system: Plasmodium falciparum; test: Antiplasmodial activity against Plasmodium falciparum CSL-2 harboring DHFR NRNL haplotype C59R/S108N/I164L triple mutant; format: functional, organism-based
[2] = test system: Plasmodium falciparum; test: Antiplasmodial activity against Plasmodium falciparum V1/S harboring DHFR IRNL haplotype N51I/C59R/S108N/I164L quadruple mutant; format: functional, organism-based
[3] = test system: Vero; test: Cytotoxicity against African green monkey Vero cells; format: cell-based; conditions: chlorocebus sabaeus
[4] = molecular target: T1, Dihydrofolate reductase (Homo sapiens, UniProt P00374)
T1 sequence (P00374 whole entry): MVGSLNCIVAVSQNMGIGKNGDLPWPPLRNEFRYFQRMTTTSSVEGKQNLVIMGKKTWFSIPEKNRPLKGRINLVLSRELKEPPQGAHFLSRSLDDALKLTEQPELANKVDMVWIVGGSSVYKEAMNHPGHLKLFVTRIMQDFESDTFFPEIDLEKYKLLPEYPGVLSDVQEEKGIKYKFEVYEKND

[5] = test system: Plasmodium falciparum; test: microbe, parasite or virus in culture; conditions: TM4/8.2
[6] = test system: Plasmodium falciparum; test: microbe, parasite or virus in culture; conditions: K1CB1
[7] = test system: Plasmodium falciparum; test: microbe, parasite or virus in culture; conditions: W2
[8] = Inhibition of Plasmodium falciparum TM4/8.2 wild type DHFR NCSI haplotype
[9] = Solubility of the compound; format: physicochemical

solubility [9] [µM]	SMILES	IC50 [1] [nM]	IC50 [2] [nM]	Activity [3] [µM]	Ki [4] [nM]	IC50 [5] [nM]	IC50 [6] [nM]	IC50 [7] [nM]	Ki [8] [nM]
	CCc1nc(N)nc(N)c1-c1cccc(Cl)c1	2530	9100	7	1.6	420	1310	3940	
	CCc1nc(N)nc(N)c1-c1ccc(Cl)cc1 [PYRIMETHAMINE]	42000	> 100000						0.6
	Cc1nc(N)nc(N)c1OCCCOc1cc(Cl)c(Cl)cc1Cl		3500			230			
1 (≈ 0.425 µg/mL)	CCc1nc(N)nc(N)c1OCCCOc1ccc(-c2c(N)nc(N)nc2CC)cc1								

Source: ChEMBL document CHEMBL4325930, “Hybrid Inhibitors of Malarial Dihydrofolate Reductase with Dual Binding Modes That Can Forestall Resistance” (ACS Med Chem Lett, 2018)
